Active and inactive are the calls of the source. The rule behind the calls is not given here.
Tests used:
[1] = system: Rattus norvegicus; assay: Antiinflammatory activity in ip dosed carrageenan induced Sprague-Dawley rat paw oedema model assessed as reduction of paw volume measured after 2 hrs by plethysmometer method; assay type: functional
[2] = biological target: T1, Prostaglandin G/H synthase 1 (Ovis aries, UniProt P05979); assay: Inhibition of ovine COX-1 using arachidonic acid as substrate assessed as production of […] preincubated for 5 mins followed by addition of substrate measured after 2 mins by EIA
T1 sequence (P05979 whole entry): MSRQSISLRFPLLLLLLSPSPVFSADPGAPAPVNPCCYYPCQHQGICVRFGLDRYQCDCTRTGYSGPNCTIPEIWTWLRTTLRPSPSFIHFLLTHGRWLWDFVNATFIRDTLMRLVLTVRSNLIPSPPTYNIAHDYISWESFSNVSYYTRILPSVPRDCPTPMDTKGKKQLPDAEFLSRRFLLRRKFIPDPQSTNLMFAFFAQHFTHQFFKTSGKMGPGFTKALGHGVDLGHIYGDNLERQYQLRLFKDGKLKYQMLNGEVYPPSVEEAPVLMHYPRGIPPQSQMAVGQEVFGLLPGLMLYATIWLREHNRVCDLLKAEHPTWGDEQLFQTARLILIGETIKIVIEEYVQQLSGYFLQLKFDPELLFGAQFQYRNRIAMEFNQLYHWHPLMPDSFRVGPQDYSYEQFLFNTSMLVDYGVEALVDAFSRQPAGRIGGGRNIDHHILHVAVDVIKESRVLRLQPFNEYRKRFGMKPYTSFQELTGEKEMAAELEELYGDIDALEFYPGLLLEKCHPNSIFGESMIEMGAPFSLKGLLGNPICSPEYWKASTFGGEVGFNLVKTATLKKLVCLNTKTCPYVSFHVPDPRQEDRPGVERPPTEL

[3] = system: Rattus norvegicus; assay: Ulcerogenicity in ip dosed fasted Sprague-Dawley rat after 24 hrs by hand lens; assay type: toxicity, organism-based; settings: in vivo
[4] = system: Mus musculus; assay: Analgesic activity in ip dosed albino Swiss mouse assessed as decrease in licking or blowing time administered as single dose measured after 1 hr by hot plate test; assay type: functional
[5] = system: Mus musculus; assay: Analgesic activity in albino Swiss mouse assessed as decrease in licking or blowing time at 200 mg/kg, ip administered as single dose measured after 1 hr by hot plate test; assay type: functional, organism-based
[6] = system: Rattus norvegicus; assay: Antiinflammatory activity in carrageenan induced Sprague-Dawley rat paw oedema model assessed as reduction of paw volume at 200 mg/kg, ip measured after 2 hrs by plethysmometer method; assay type: functional, organism-based

CC(=O)c1ccc(NCC(=O)N2N=C(c3ccc(F)cc3)CC2c2ccc([N+](=O)[O-])cc2)cc1 (stereo not drawn)
ED50 [1]: 73.2 mg/kg
IC50 [2]: > 100 µM
Activity [3]: > 200 mg/kg
ED50 [4]: 49.4 mg/kg

O=C(CCl)N1N=C(c2ccccc2)CC1c1ccc([N+](=O)[O-])cc1 (stereo not drawn)
Activity [5]: inactive
Activity [6]: inactive

Nc1ccc(C2=NN(C(=O)CCl)C(c3ccc([N+](=O)[O-])cc3)C2)cc1 (stereo not drawn)
Activity [5]: inactive
Activity [6]: inactive

Cc1ccc(-c2cc(C(F)(F)F)nn2-c2ccc(S(N)(=O)=O)cc2)cc1 [CELECOXIB]
ED50 [1]: 89 mg/kg
Activity [3]: > 200 mg/kg
ED50 [4]: 72 mg/kg

CC(=O)c1ccc(NCC(=O)N2N=C(c3ccccc3)CC2c2ccc([N+](=O)[O-])cc2)cc1 (stereo not drawn)
ED50 [1]: 59.4 mg/kg
IC50 [2]: > 100 µM
Activity [3]: > 200 mg/kg
ED50 [4]: 38.6 mg/kg

O=C(CO[N+](=O)[O-])N1N=C(c2ccc(F)cc2)CC1c1ccc([N+](=O)[O-])cc1 (stereo not drawn)
ED50 [1]: 65.3 mg/kg
IC50 [2]: > 100 µM
Activity [3]: > 200 mg/kg
ED50 [4]: 55.1 mg/kg

O=C(CCl)N1N=C(c2ccc(Br)cc2)CC1c1ccc([N+](=O)[O-])cc1 (stereo not drawn)
Activity [5]: inactive
Activity [6]: inactive

Fc1ccc(C2=NNC(c3ccc(Cl)cc3)C2)cc1 (stereo not drawn)
Activity [5]: inactive
Activity [6]: inactive

CC(=O)Nc1ccc(C2=NN(c3ccccc3)C(c3ccc([N+](=O)[O-])cc3)C2)cc1 (stereo not drawn)
ED50 [1]: 91.3 mg/kg
Activity [3]: > 200 mg/kg
ED50 [4]: 75.2 mg/kg

CC(=O)c1ccc(NCC(=O)N2N=C(c3ccc(Br)cc3)CC2c2ccc([N+](=O)[O-])cc2)cc1 (stereo not drawn)
ED50 [1]: 95.9 mg/kg
Activity [3]: > 200 mg/kg
ED50 [4]: 87.8 mg/kg

O=C(CO[N+](=O)[O-])N1N=C(c2ccccc2)CC1c1ccc([N+](=O)[O-])cc1 (stereo not drawn)
Activity [5]: inactive
Activity [6]: inactive

O=C(CO[N+](=O)[O-])N1N=C(c2ccc(Br)cc2)CC1c1ccc([N+](=O)[O-])cc1 (stereo not drawn)
Activity [5]: inactive
Activity [6]: inactive

O=C(CCl)N1N=C(c2ccc(F)cc2)CC1c1ccc([N+](=O)[O-])cc1 (stereo not drawn)
ED50 [1]: 98.4 mg/kg
Activity [3]: > 200 mg/kg
ED50 [4]: 68.2 mg/kg

Nc1ccc(C2=NNC(c3ccc([N+](=O)[O-])cc3)C2)cc1 (stereo not drawn)
Activity [5]: inactive
Activity [6]: inactive

O=[N+]([O-])c1ccc(C2CC(c3ccc(F)cc3)=NN2)cc1 (stereo not drawn)
ED50 [1]: 89.7 mg/kg
Activity [3]: > 200 mg/kg
ED50 [4]: 59.1 mg/kg

O=C(CCl)Nc1ccc(C2=NN(C(=O)CCl)C(c3ccc([N+](=O)[O-])cc3)C2)cc1 (stereo not drawn)
ED50 [1]: 90.3 mg/kg
Activity [3]: > 200 mg/kg
ED50 [4]: 81.9 mg/kg

O=C(CO[N+](=O)[O-])N1N=C(c2ccc(Br)cc2)CC1c1ccc(Cl)cc1 (stereo not drawn)
Activity [5]: inactive
Activity [6]: inactive

CC(=O)Nc1ccc(C2=NN(c3ccccc3)C(c3ccc(Cl)cc3)C2)cc1 (stereo not drawn)
ED50 [1]: 74.2 mg/kg
IC50 [2]: > 100 µM
Activity [3]: > 200 mg/kg
ED50 [4]: 49.6 mg/kg

CC(=O)Nc1ccc(C2=NN(C(C)=O)C(c3ccc([N+](=O)[O-])cc3)C2)cc1 (stereo not drawn)
IC50 [2]: > 100 µM
Activity [3]: > 200 mg/kg
ED50 [4]: 48.1 mg/kg

Source: ChEMBL document CHEMBL3779775, “Synthesis, anti-inflammatory, analgesic, COX-1/2 inhibition activities and molecular docking study of pyrazoline derivatives” (Bioorg Med Chem, 2016)
